How the values were obtained:
BT-474 = experiment: Antiproliferative activity against human BT-474 cells assessed as inhibition of cell growth; format: functional, cell-based
K562 [1] = experiment: Induction of apoptosis in human K562 cells assessed as increase in apoptotic cells under hypoxia condition relative to control; format: functional
K562 [2] = experiment: Induction of apoptosis in human K562 cells assessed as increase in apoptotic cells under normoxia condition relative to control; format: functional
KB = experiment: Antiproliferative activity against human KB cells assessed as inhibition of cell growth under hypoxia condition; format: functional, cell-based
[3] = target: Vascular endothelial growth factor receptor 2 (Homo sapiens, UniProt P35968); experiment: Inhibition of VEGFR-2 (unknown origin)
[4] = target: Epidermal growth factor receptor (Homo sapiens, UniProt P00533); experiment: Inhibition of EGFR (unknown origin)
[5] = Antiproliferative activity against human DiFi cells assessed as inhibition of cell growth by MTS assay
OVCAR-4 = experiment: Antiproliferative activity against human OVCAR-4 cells assessed as cell growth inhibition; format: functional, cell-based
HL-60 [6] = experiment: Antiproliferative activity against human HL-60 cells assessed as inhibition of cell growth under normoxia condition incubated for 72 hrs by MTT assay; format: functional, cell-based; conditions: HL-60, 72 h
Bel-7402 [7] = experiment: Antiproliferative activity against human Bel-7402 cells assessed as inhibition of cell growth under normoxia condition incubated for 72 hrs by MTT assay; format: functional, cell-based; conditions: Bel-7402, 72 h
Bel-7402 [8] = experiment: Antiproliferative activity against human Bel-7402 cells assessed as inhibition of cell growth under hypoxia condition incubated for 72 hrs by MTT assay; format: functional, cell-based; conditions: Bel-7402, 72 h
[9] = Ratio of IC50 for antiproliferative activity against human Bel-7402 cells assessed as inhibition of cell growth under normoxia condition to IC50 for antiproliferative activity against human Bel-7402 cells assessed as inhibition of cell growth under hypoxia condition; format: functional
HL-60 [10] = experiment: Antiproliferative activity against human HL-60 cells assessed as inhibition of cell growth under hypoxia condition incubated for 72 hrs by MTT assay; format: functional, cell-based; conditions: HL-60, 72 h
[11] = Ratio of IC50 for antiproliferative activity against human HL-60 cells assessed as inhibition of cell growth under normoxia condition to IC50 for antiproliferative activity against human HL-60 cells assessed as inhibition of cell growth under hypoxia condition; format: functional
[12] = Ratio of IC50 for antiproliferative activity against human PC-3 cells assessed as inhibition of cell growth under normoxia condition to IC50 for antiproliferative activity against human PC-3 cells assessed as inhibition of cell growth under hypoxia condition; format: functional
MCF7 [13] = experiment: Antiproliferative activity against human MCF7 cells assessed as inhibition of cell growth under normoxia condition incubated for 72 hrs by MTT assay; format: functional, cell-based; conditions: MCF7, 72 h
PC-3 [14] = experiment: Antiproliferative activity against human PC-3 cells assessed as inhibition of cell growth under hypoxia condition incubated for 72 hrs by MTT assay; format: functional, cell-based; conditions: PC-3, 72 h
MCF7 [15] = experiment: Antiproliferative activity against human MCF7 cells assessed as inhibition of cell growth under hypoxia condition incubated for 72 hrs by MTT assay; format: functional, cell-based; conditions: MCF7, 72 h
ECa-109 cell line [16] = experiment: Antiproliferative activity against human Eca-109 cells assessed as inhibition of cell growth under hypoxia condition incubated for 72 hrs by MTT assay; format: functional, cell-based; conditions: ECa-109, 72 h
PC-3 [17] = experiment: Antiproliferative activity against human PC-3 cells assessed as inhibition of cell growth under normoxia condition incubated for 72 hrs by MTT assay; format: functional, cell-based; conditions: PC-3, 72 h
[18] = Ratio of IC50 for antiproliferative activity against human MCF7 cells assessed as inhibition of cell growth under normoxia condition to IC50 for antiproliferative activity against human MCF7 cells assessed as inhibition of cell growth under hypoxia condition; format: functional
[19] = Ratio of IC50 for antiproliferative activity against human Eca-109 cells assessed as inhibition of cell growth under normoxia condition to IC50 for antiproliferative activity against human Eca-109 cells assessed as inhibition of cell growth under hypoxia condition; format: functional
ECa-109 cell line [20] = experiment: Antiproliferative activity against human Eca-109 cells assessed as inhibition of cell growth under normoxia condition incubated for 72 hrs by MTT assay; format: functional, cell-based; conditions: ECa-109, 72 h
HepG2 = experiment: Antiproliferative activity against human HepG2 cells assessed as cell growth inhibition; format: functional, cell-based
HCT-116 = experiment: Antiproliferative activity against human HCT-116 cells assessed as inhibition of cell growth; format: functional, cell-based
MCF7 [21] = experiment: Antiproliferative activity against human MCF7 cells assessed as inhibition of cell growth; format: functional, cell-based
MOLT-4 = experiment: Antiproliferative activity against human MOLT-4 cells assessed as inhibition of cell growth incubated for 72 hrs by MTT assay; format: functional, cell-based; conditions: MOLT-4, 72 h
HL-60 [22] = experiment: Antiproliferative activity against human HL-60 cells assessed as inhibition of cell growth incubated for 72 hrs by MTT assay; format: functional, cell-based; conditions: HL-60, 72 h
MCF7 [23] = experiment: Cytotoxicity against human MCF7 cells assessed as inhibition of cell growth incubated for 72 hrs by MTT assay; format: functional, cell-based; conditions: MCF7, 72 h

Vascular endothelial growth factor receptor 2, sequence (P35968 whole entry): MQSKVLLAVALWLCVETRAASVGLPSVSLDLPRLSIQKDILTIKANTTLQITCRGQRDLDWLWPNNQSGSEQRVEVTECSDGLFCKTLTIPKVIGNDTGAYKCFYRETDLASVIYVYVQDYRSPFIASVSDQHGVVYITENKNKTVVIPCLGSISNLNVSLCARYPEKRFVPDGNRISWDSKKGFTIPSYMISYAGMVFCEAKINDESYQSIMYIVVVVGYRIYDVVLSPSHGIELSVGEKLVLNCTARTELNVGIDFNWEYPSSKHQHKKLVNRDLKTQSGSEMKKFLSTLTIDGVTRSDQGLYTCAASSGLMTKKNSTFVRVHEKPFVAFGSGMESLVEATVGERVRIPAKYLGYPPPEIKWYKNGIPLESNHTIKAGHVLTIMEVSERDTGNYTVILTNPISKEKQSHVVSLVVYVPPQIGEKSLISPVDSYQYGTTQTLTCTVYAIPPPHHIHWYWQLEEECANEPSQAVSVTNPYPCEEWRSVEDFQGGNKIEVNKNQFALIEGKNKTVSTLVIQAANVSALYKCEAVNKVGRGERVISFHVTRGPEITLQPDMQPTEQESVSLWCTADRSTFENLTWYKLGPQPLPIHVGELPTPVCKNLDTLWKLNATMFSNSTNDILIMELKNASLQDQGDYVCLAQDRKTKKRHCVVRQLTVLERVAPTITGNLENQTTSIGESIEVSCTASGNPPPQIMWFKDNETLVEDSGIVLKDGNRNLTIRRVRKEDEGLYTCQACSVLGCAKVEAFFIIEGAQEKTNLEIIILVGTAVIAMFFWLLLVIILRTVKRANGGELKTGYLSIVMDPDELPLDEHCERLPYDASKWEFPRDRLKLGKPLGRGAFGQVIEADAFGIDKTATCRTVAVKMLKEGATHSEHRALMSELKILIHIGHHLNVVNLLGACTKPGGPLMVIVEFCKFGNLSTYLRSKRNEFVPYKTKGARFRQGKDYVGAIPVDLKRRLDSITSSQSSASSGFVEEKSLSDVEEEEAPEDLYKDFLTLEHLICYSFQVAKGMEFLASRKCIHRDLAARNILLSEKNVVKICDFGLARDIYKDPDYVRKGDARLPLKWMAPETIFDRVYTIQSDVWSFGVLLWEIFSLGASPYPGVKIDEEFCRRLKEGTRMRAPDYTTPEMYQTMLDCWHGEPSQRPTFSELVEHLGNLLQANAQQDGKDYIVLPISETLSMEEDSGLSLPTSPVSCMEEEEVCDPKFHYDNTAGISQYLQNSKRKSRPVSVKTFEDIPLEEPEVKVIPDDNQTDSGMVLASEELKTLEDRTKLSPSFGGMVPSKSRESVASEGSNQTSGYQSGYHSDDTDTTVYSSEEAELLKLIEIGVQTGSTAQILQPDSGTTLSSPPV
Epidermal growth factor receptor, sequence (P00533 whole entry): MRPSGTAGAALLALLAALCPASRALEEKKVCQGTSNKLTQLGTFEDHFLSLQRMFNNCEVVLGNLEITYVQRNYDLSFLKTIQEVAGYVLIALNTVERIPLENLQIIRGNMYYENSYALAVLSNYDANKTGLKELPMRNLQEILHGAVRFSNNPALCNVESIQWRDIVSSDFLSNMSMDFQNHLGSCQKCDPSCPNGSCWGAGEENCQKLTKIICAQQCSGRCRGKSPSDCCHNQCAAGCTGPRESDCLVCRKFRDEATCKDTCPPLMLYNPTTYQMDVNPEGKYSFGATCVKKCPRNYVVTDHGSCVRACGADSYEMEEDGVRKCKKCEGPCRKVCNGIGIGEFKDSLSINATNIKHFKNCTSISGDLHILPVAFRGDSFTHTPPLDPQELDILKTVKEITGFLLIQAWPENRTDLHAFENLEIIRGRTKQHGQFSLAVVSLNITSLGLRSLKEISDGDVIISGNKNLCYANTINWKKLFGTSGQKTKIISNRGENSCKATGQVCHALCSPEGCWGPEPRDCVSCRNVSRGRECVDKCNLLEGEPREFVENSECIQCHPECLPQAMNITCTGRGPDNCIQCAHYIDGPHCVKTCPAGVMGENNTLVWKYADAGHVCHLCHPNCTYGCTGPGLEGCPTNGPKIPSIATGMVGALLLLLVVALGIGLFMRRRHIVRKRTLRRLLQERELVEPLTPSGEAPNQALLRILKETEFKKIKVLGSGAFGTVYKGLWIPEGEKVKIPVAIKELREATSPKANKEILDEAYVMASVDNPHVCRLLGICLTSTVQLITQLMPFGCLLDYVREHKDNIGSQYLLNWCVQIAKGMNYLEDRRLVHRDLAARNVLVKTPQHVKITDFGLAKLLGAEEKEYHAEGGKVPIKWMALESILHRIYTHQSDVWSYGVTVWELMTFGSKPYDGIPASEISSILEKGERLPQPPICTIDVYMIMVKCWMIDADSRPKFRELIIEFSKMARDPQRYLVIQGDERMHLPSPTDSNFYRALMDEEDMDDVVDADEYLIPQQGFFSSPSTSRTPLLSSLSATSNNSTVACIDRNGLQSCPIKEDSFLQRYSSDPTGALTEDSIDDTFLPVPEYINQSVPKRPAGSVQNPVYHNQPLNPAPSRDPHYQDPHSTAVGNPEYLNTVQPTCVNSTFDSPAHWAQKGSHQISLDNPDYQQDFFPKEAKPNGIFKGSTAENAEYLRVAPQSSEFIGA

Work on CCCc1nc2c(=O)n(C)c(=O)nc-2n(C)n1 yielded an IC50 (BT-474) of 900 nM.
Cn1nc(Cc2ccccc2)nc2c(=O)n(C)c(=O)nc1-2 showed an IC50 (BT-474) of 900 nM.
With CCn1nc(-c2ccccc2)nc2c(=O)n(C)c(=O)nc1-2 the IC50 (BT-474) was 900 nM.
For Cn1nc(-c2ccccc2)nc2c(=O)n(C)c(=O)nc1-2, the IC50 (BT-474) was 900 nM.
Compound COc1ccc(COCNc2n[n+]([O-])c3ccccc3[n+]2[O-])cc1 has an Activity (K562 [1]) of 33.07%, an Activity (K562 [2]) of 14.13% and an IC50 (KB) of 3320 nM.
In the case of [O-][n+]1nc(NCOCc2ccc(C(F)(F)F)cc2)[n+]([O-])c2ccccc21, the Activity (K562 [1]) is reported as 54.24%, the Activity (K562 [2]) is reported as 14.95% and the IC50 (KB) is reported as 4270 nM.
For Cc1ccc2c(Nc3ccc(F)c(Cl)c3)ncnn12, the IC50 [3] was 3250 nM, the IC50 [4] was over 2000 nM and the IC50 [5] was 1600 nM.
Cc1cc2c(Nc3ccc(C)c(O)c3)ncnn2c1 showed an IC50 [3] of 654 nM and an IC50 [4] of 405 nM.
With Fc1ccc(Nc2ncnn3cccc23)cc1Cl the IC50 [3] was 118 nM, the IC50 [4] was over 10000 nM and the IC50 [5] was 1600 nM.
In the case of Cc1ccc(Nc2ncnn3cccc23)cc1O, the IC50 [3] is reported as 510 nM and the IC50 [4] is reported as 1440 nM.
Compound Cc1ccc(Nc2ncnn3cc(C)c(C)c23)cc1O has an IC50 [3] of 200 nM and an IC50 [4] of 23 nM.
In the case of Cc1cc2c(Nc3ccc(F)c(Cl)c3)ncnn2c1, the IC50 [3] is reported as 151 nM, the IC50 [4] is reported as over 2000 nM and the IC50 [5] is reported as 1600 nM.
For Cc1ccn2ncnc(Nc3ccc(F)c(Cl)c3)c12, the IC50 [3] was 100 nM, the IC50 [4] was over 10000 nM and the IC50 [5] was 1600 nM.
For Cc1ccc(Nc2ncnn3ccc(C)c23)cc1O, the IC50 [3] was 346 nM and the IC50 [4] was 66 nM.
Work on Cc1c(-c2ccccc2)c(C#N)c2nnc(C(N)=O)c(N)n12 yielded an IC50 (OVCAR-4) of 2770 nM.
In the case of CCOC(=O)c1nnc2c(C#N)c(-c3ccccc3)c(C)n2c1N, the IC50 (OVCAR-4) is reported as 2770 nM.
Compound [O-][n+]1nc(NC2CCCCC2)[n+]([O-])c2ccc(Cl)cc21 has an IC50 (HL-60 [6]) of 200 nM, an IC50 (Bel-7402 [7]) of 200 nM and an IC50 (Bel-7402 [8]) of 200 nM. The “Ratio IC50” value [9] was 1, the IC50 (HL-60 [10]) was 200 nM and the “Ratio IC50” value [11] was 6.4. For the same compound, the “Ratio IC50” value [12] was 2, the IC50 (MCF7 [13]) was 200 nM and the IC50 (PC-3 [14]) was 200 nM. It also gave an IC50 (MCF7 [15]) of 200 nM, an IC50 (ECa-109 cell line [16]) of 200 nM and an IC50 (PC-3 [17]) of 200 nM. The “Ratio IC50” value [18] was 2.7, the “Ratio IC50” value [19] was 2.9 and the IC50 (ECa-109 cell line [20]) was 200 nM.
Work on O=c1c(/C=C/c2cccs2)nnc(S)n1NC(=S)Nc1ccccc1 yielded an IC50 (HepG2) of 8790 nM, an IC50 (HCT-116) of 8790 nM and an IC50 (MCF7 [21]) of 8790 nM.
In the case of O=c1c(/C=C/c2cccs2)nnc(S)n1/N=C/c1cccs1, the IC50 (HepG2) is reported as 8790 nM, the IC50 (HCT-116) is reported as 8790 nM and the IC50 (MCF7 [21]) is reported as 8790 nM.
Clc1ccc(CSc2nnc3c(n2)-c2cccc4cccc-3c24)cc1 gave an IC50 (MOLT-4) of 30000 nM, an IC50 (HL-60 [22]) of 30000 nM and an IC50 (MCF7 [23]) of 30000 nM.
CCOC(=O)c1nnc2c(C#N)c(C)c(-c3ccccc3)n2c1N gave an IC50 (OVCAR-4) of 2770 nM.
Nn1c(S)nnc(/C=C/c2cccs2)c1=O showed an IC50 (HepG2) of 8790 nM, an IC50 (HCT-116) of 8790 nM and an IC50 (MCF7 [21]) of 8790 nM.
